Measurements: the supplement of paper PMC10307832

Legend:
Assay in all cases: relative viability (nuclei count vs DMSO), 5 days (fraction); higher = more cells survive
[1] = compound: N#CC1(c2ccc(NC(=O)c3cccnc3NCc3ccncc3)cc2)CCCC1 [Apatinib] + Cc1nc(Nc2ncc(C(=O)Nc3c(C)cccc3Cl)s2)cc(N2CCN(CCO)CC2)n1 [Dasatinib] (partner 0.075 µM)
In short: (§1)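 Medians of duplicate plates are given as relative viability. That measure is the nuclei count in treated wells divided by the count in vehicle wells. Counts were taken on 4× images of lung cancer cell lines in 1536-well plates, 5 days after pin-tool dosing the day after seeding with one drug alone or a fixed anchor-drug dose plus five library-drug doses (not always all listed) in √10 steps.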

[2] = compound: CN(C)C(=N)NC(=N)N [Metformin] + Nc1ncn([C@H]2C[C@H](O)[C@@H](CO)O2)c(=O)n1 [Decitabine] (partner 2 µM)
In short: as §1

[3] = compound: N#CC1(c2ccc(NC(=O)c3cccnc3NCc3ccncc3)cc2)CCCC1 [Apatinib] + CCNC(=O)c1noc(-c2cc(C(C)C)c(O)cc2O)c1-c1ccc(CN2CCOCC2)cc1 [Luminespib] (partner 0.01 µM)
In short: as §1

[4] = compound: CN(C)C(=N)NC(=N)N [Metformin] + CC(C)C[C@H](NC(=O)[C@H](Cc1ccccc1)NC(=O)c1cnccn1)B(O)O [Bortezomib] (partner 0.002 µM)
In short: as §1

NCI-H1793
relative viability ([1]; first compound 0.08 µM): 0.427 | relative viability ([1]; first compound 0.253 µM): 0.345 | relative viability ([1]; first compound 0.8 µM): 0.337 | relative viability ([1]; first compound 2.53 µM): 0.37 | relative viability ([1]; first compound 8 µM): 0.3 | relative viability ([2]; first compound 10 µM): 0.503 | relative viability ([2]; first compound 31.62 µM): 0.439 | relative viability ([2]; first compound 100 µM): 0.458 | relative viability ([2]; first compound 316.23 µM): 0.449 | relative viability ([2]; first compound 1000 µM): 0.621 | relative viability ([3]; first compound 0.08 µM): 0.185 | relative viability ([3]; first compound 0.253 µM): 0.183 | relative viability ([3]; first compound 0.8 µM): 0.157 | relative viability ([3]; first compound 2.53 µM): 0.172 | relative viability ([3]; first compound 8 µM): 0.193

NCI-H1437
relative viability ([1]; first compound 0.08 µM): 0.28 | relative viability ([1]; first compound 0.253 µM): 0.417 | relative viability ([1]; first compound 0.8 µM): 0.373 | relative viability ([1]; first compound 2.53 µM): 0.266 | relative viability ([1]; first compound 8 µM): 0.157 | relative viability ([4]; first compound 10 µM): 0.629 | relative viability ([4]; first compound 31.62 µM): 0.641 | relative viability ([4]; first compound 100 µM): 0.459 | relative viability ([4]; first compound 316.23 µM): 0.527 | relative viability ([4]; first compound 1000 µM): 0.574 | relative viability ([2]; first compound 10 µM): 0.641 | relative viability ([2]; first compound 31.62 µM): 0.595 | relative viability ([2]; first compound 100 µM): 0.59 | relative viability ([2]; first compound 316.23 µM): 0.593 | relative viability ([2]; first compound 1000 µM): 0.577 | relative viability ([3]; first compound 0.08 µM): 1.11 | relative viability ([3]; first compound 0.253 µM): 1.12 | relative viability ([3]; first compound 0.8 µM): 1.11 | relative viability ([3]; first compound 2.53 µM): 0.923 | relative viability ([3]; first compound 8 µM): 0.817

SW 1573
relative viability ([1]; first compound 0.08 µM): 0.454 | relative viability ([1]; first compound 0.253 µM): 0.624 | relative viability ([1]; first compound 0.8 µM): 0.393 | relative viability ([1]; first compound 2.53 µM): 0.351 | relative viability ([1]; first compound 8 µM): 0.458 | relative viability ([4]; first compound 10 µM): 1.19 | relative viability ([4]; first compound 31.62 µM): 1.15 | relative viability ([4]; first compound 100 µM): 0.963 | relative viability ([4]; first compound 316.23 µM): 1 | relative viability ([4]; first compound 1000 µM): 1.36 | relative viability ([2]; first compound 10 µM): 0.508 | relative viability ([2]; first compound 31.62 µM): 0.637 | relative viability ([2]; first compound 100 µM): 0.44 | relative viability ([2]; first compound 316.23 µM): 0.431 | relative viability ([2]; first compound 1000 µM): 0.421 | relative viability ([3]; first compound 0.08 µM): 0.318 | relative viability ([3]; first compound 0.253 µM): 0.184 | relative viability ([3]; first compound 0.8 µM): 0.183 | relative viability ([3]; first compound 2.53 µM): 0.162 | relative viability ([3]; first compound 8 µM): 0.195

SW 900
relative viability ([1]; first compound 0.08 µM): 0.699 | relative viability ([1]; first compound 0.253 µM): 0.429 | relative viability ([1]; first compound 0.8 µM): 0.545 | relative viability ([1]; first compound 2.53 µM): 0.476 | relative viability ([1]; first compound 8 µM): 0.491 | relative viability ([2]; first compound 10 µM): 0.41 | relative viability ([2]; first compound 31.62 µM): 0.389 | relative viability ([2]; first compound 316.23 µM): 0.412 | relative viability ([2]; first compound 1000 µM): 0.492 | relative viability ([3]; first compound 0.08 µM): 0.171 | relative viability ([3]; first compound 0.253 µM): 0.178 | relative viability ([3]; first compound 0.8 µM): 0.175 | relative viability ([3]; first compound 2.53 µM): 0.185 | relative viability ([3]; first compound 8 µM): 0.177

LCLC-103H
relative viability ([1]; first compound 0.08 µM): 0.436 | relative viability ([1]; first compound 0.253 µM): 0.402 | relative viability ([1]; first compound 0.8 µM): 0.458 | relative viability ([1]; first compound 2.53 µM): 0.43 | relative viability ([1]; first compound 8 µM): 0.344 | relative viability ([4]; first compound 10 µM): 0.971 | relative viability ([4]; first compound 31.62 µM): 1.22 | relative viability ([4]; first compound 100 µM): 1.06 | relative viability ([4]; first compound 316.23 µM): 1.12 | relative viability ([4]; first compound 1000 µM): 1.06 | relative viability ([2]; first compound 10 µM): 0.72 | relative viability ([2]; first compound 31.62 µM): 0.738 | relative viability ([2]; first compound 100 µM): 0.714 | relative viability ([2]; first compound 316.23 µM): 0.714 | relative viability ([2]; first compound 1000 µM): 0.788 | relative viability ([3]; first compound 0.08 µM): 0.969 | relative viability ([3]; first compound 0.253 µM): 0.949 | relative viability ([3]; first compound 0.8 µM): 0.864 | relative viability ([3]; first compound 2.53 µM): 0.957 | relative viability ([3]; first compound 8 µM): 0.735

HCC-44
relative viability ([4]; first compound 10 µM): 0.861 | relative viability ([4]; first compound 31.62 µM): 0.858 | relative viability ([4]; first compound 100 µM): 0.88 | relative viability ([4]; first compound 316.23 µM): 0.88 | relative viability ([4]; first compound 1000 µM): 0.856 | relative viability ([2]; first compound 31.62 µM): 0.934 | relative viability ([2]; first compound 100 µM): 0.927 | relative viability ([2]; first compound 316.23 µM): 0.959 | relative viability ([2]; first compound 1000 µM): 0.966 | relative viability ([3]; first compound 0.08 µM): 0.98 | relative viability ([3]; first compound 0.253 µM): 1.21 | relative viability ([3]; first compound 0.8 µM): 1.03 | relative viability ([3]; first compound 2.53 µM): 1.02 | relative viability ([3]; first compound 8 µM): 0.751

IA-LM
relative viability ([4]; first compound 31.62 µM): 1.14 | relative viability ([4]; first compound 100 µM): 1.03 | relative viability ([4]; first compound 316.23 µM): 0.893 | relative viability ([4]; first compound 1000 µM): 0.624

NCI-H1395
relative viability ([1]; first compound 0.08 µM): 0.412 | relative viability ([1]; first compound 0.253 µM): 0.399 | relative viability ([1]; first compound 0.8 µM): 0.367 | relative viability ([1]; first compound 2.53 µM): 0.349 | relative viability ([1]; first compound 8 µM): 0.378 | relative viability ([2]; first compound 10 µM): 0.661 | relative viability ([2]; first compound 31.62 µM): 0.758 | relative viability ([2]; first compound 100 µM): 0.719 | relative viability ([2]; first compound 316.23 µM): 0.713 | relative viability ([2]; first compound 1000 µM): 0.382 | relative viability ([3]; first compound 0.08 µM): 0.713 | relative viability ([3]; first compound 0.253 µM): 0.686 | relative viability ([3]; first compound 0.8 µM): 0.784 | relative viability ([3]; first compound 2.53 µM): 0.604 | relative viability ([3]; first compound 8 µM): 0.527

HCC-366
relative viability ([1]; first compound 0.08 µM): 0.661 | relative viability ([1]; first compound 0.253 µM): 0.559 | relative viability ([1]; first compound 0.8 µM): 0.565 | relative viability ([1]; first compound 2.53 µM): 0.647 | relative viability ([1]; first compound 8 µM): 0.601 | relative viability ([4]; first compound 10 µM): 1.09 | relative viability ([4]; first compound 31.62 µM): 1.11 | relative viability ([4]; first compound 100 µM): 1.01 | relative viability ([4]; first compound 316.23 µM): 1.02 | relative viability ([4]; first compound 1000 µM): 1.12 | relative viability ([2]; first compound 10 µM): 0.288 | relative viability ([2]; first compound 31.62 µM): 0.293 | relative viability ([2]; first compound 100 µM): 0.306 | relative viability ([2]; first compound 316.23 µM): 0.291 | relative viability ([2]; first compound 1000 µM): 0.289

NCI-H2342
relative viability ([1]; first compound 0.08 µM): 0.267 | relative viability ([1]; first compound 0.253 µM): 0.295 | relative viability ([1]; first compound 0.8 µM): 0.307 | relative viability ([1]; first compound 2.53 µM): 0.28 | relative viability ([1]; first compound 8 µM): 0.283 | relative viability ([2]; first compound 31.62 µM): 0.812 | relative viability ([2]; first compound 100 µM): 0.708 | relative viability ([2]; first compound 316.23 µM): 0.714 | relative viability ([2]; first compound 1000 µM): 0.693 | relative viability ([3]; first compound 0.08 µM): 0.677 | relative viability ([3]; first compound 0.253 µM): 0.552 | relative viability ([3]; first compound 0.8 µM): 0.81 | relative viability ([3]; first compound 2.53 µM): 0.702 | relative viability ([3]; first compound 8 µM): 0.726

NCI-H1648
relative viability ([2]; first compound 31.62 µM): 0.512 | relative viability ([2]; first compound 100 µM): 0.555 | relative viability ([2]; first compound 316.23 µM): 0.535 | relative viability ([2]; first compound 1000 µM): 0.656
